Experimental data reported in patent US20050019765A1, “Methods for treating disorders of the nervous and reproductive systems” (priority 2001, published 2005).

System: murine sperm
Assay: chlortetracycline assay for capacitation of murine sperm in vitro
Assay type: cell-based
Excerpt: ABCA1 generates HDL by transferring cholesterol onto apoprotein-A1 (apoA1) in a process known as cholesterol efflux, which is also an essential component of male fertility. Sperm are made in the testes and released into the epididymis, where they await ejaculation into the female reproductive tract. Although differentiated, epididymal sperm are not capable of fertilization and must first complete their maturation in the female reproductive tract. This maturation process is known as capacitation and is known to require efflux of cholesterol from the sperm plasma membrane. How this occurs at the molecular level is not well understood. The present invention relies in part on the discovery that ABCA1 is highly expressed in the testes (being present in Sertoli and Leydig cells as well as in differentiating spermatids). […] In accordance with the present invention, ABCA1 is also present in epididymal sperm where it can act to transport cholesterol during capacitation. In vivo, follicular HDL is an endogenous cholesterol acceptor for capacitating sperm, and HDL can stimulate capacitation in vitro. In accordance with the present invention, because cholesterol efflux through ABCA1 is dependent upon apoA1 the ability of apoA1 to stimulate capacitation of murine sperm in vitro was tested using a chlortetracycline assay.

“de-lipidated apoA1: apoprotein-A1, the acceptor onto which ABCA1 transfers cholesterol in cholesterol efflux” was tested, and the “ability to stimulate capacitation of murine sperm” value was “capacitates sperm in a dose-dependent manner”.
